In publication PMC5218480 (PLoS ONE, 2017):

System: MV-4-11 cells
Assay: Gene expression microarray analysis (Affymetrix PrimeView) and GSEA
Assay type: cell-based, human
Parameters: RFU PODN (11730768_x_at) / Fold change /veh PODN (11730768_x_at) / RFU LINC00158 (11744669_a_at) / Fold change /veh LINC00158 (11744669_a_at) / RFU DUSP10 (11751237_a_at) / Fold change /veh DUSP10 (11751237_a_at) / RFU ID3 (11757404_x_at) / Fold change /veh ID3 (11757404_x_at) / RFU PLEKHG5 (11737974_s_at) / Fold change /veh PLEKHG5 (11737974_s_at) / RFU LRRC4B (11730491_at) / Fold change /veh LRRC4B (11730491_at) / RFU GIMAP4 (11747438_a_at) / Fold change /veh GIMAP4 (11747438_a_at) / RFU KRT8 (11758183_x_at) / Fold change /veh KRT8 (11758183_x_at) / RFU CNN1 (11734310_a_at) / Fold change /veh CNN1 (11734310_a_at) / RFU VPS37D (11726825_at) / Fold change /veh VPS37D (11726825_at) / RFU C10orf10 (11716522_x_at) / Fold change /veh C10orf10 (11716522_x_at) / RFU KIR2DL2 /// KIR2DL4 /// KIR2DL5A /// KIR2DL5B /// KIR2DS1 /// KIR2DS2 /// KIR2DS3 /// KIR2DS4 /// KIR3DL3 /// KIR3DL3 /// KIR3DS1 (11738374_at) / Fold change /veh KIR2DL2 /// KIR2DL4 /// KIR2DL5A /// KIR2DL5B /// KIR2DS1 /// KIR2DS2 /// KIR2DS3 /// KIR2DS4 /// KIR3DL3 /// KIR3DL3 /// KIR3DS1 (11738374_at) / RFU C1QL1 (11718748_at) / Fold change /veh C1QL1 (11718748_at) / RFU TMPRSS4 (11747572_a_at) / Fold change /veh TMPRSS4 (11747572_a_at) / RFU HAMP (11756126_x_at) / Fold change /veh HAMP (11756126_x_at) / RFU RNFT2 (11725882_a_at) / Fold change /veh RNFT2 (11725882_a_at) / RFU NR4A2 (11747474_a_at) / Fold change /veh NR4A2 (11747474_a_at) / RFU ABCC12 (11746883_a_at) / Fold change /veh ABCC12 (11746883_a_at) / RFU TMEM136 (11760407_x_at) / Fold change /veh TMEM136 (11760407_x_at) / RFU CLDN22 /// WWC2 (11732394_at) / Fold change /veh CLDN22 /// WWC2 (11732394_at) / RFU HLA-DPB1 (11760878_x_at) / Fold change /veh HLA-DPB1 (11760878_x_at) / RFU SPINT1 (11716480_a_at) / Fold change /veh SPINT1 (11716480_a_at) / RFU GAP43 (11754022_s_at) / Fold change /veh GAP43 (11754022_s_at) / RFU A4GNT (11735810_at) / Fold change /veh A4GNT (11735810_at) / RFU PRB3 (11715151_x_at) / Fold change /veh PRB3 (11715151_x_at) / RFU TUBB4B (11761932_at) / Fold change /veh TUBB4B (11761932_at) / RFU CAPN14 (11732068_a_at) / Fold change /veh CAPN14 (11732068_a_at) / RFU TMCC2 (11721928_a_at) / Fold change /veh TMCC2 (11721928_a_at) / RFU IRGQ (11745062_a_at) / Fold change /veh IRGQ (11745062_a_at) / RFU FAM174B (11720279_a_at) / Fold change /veh FAM174B (11720279_a_at) / RFU TMPRSS4 (11748680_a_at) / Fold change /veh TMPRSS4 (11748680_a_at) / RFU FAM212B (11763350_a_at) / Fold change /veh FAM212B (11763350_a_at) / RFU PLEKHG5 (11743358_a_at) / Fold change /veh PLEKHG5 (11743358_a_at) / RFU ZSCAN30 (11745921_a_at) / Fold change /veh ZSCAN30 (11745921_a_at) / RFU CMKLR1 (11741424_a_at) / Fold change /veh CMKLR1 (11741424_a_at) / RFU LOC101060620 /// MAPK8IP1 (11723275_at) / Fold change /veh LOC101060620 /// MAPK8IP1 (11723275_at) / RFU SPTSSB (11747773_x_at) / Fold change /veh SPTSSB (11747773_x_at) / RFU PRSS12 (11739890_at) / Fold change /veh PRSS12 (11739890_at) / RFU BIN1 (11741810_x_at) / Fold change /veh BIN1 (11741810_x_at) / RFU WNT11 (11732464_a_at) / Fold change /veh WNT11 (11732464_a_at) / RFU C10orf10 (11716521_a_at) / Fold change /veh C10orf10 (11716521_a_at) / RFU C5orf56 (11738089_at) / Fold change /veh C5orf56 (11738089_at) / RFU CYB561 (11721691_x_at) / Fold change /veh CYB561 (11721691_x_at) / RFU ANKRD19P (11752326_a_at) / Fold change /veh ANKRD19P (11752326_a_at) / RFU OR2T12 /// OR2T33 /// OR2T8 (11738714_s_at) / Fold change /veh OR2T12 /// OR2T33 /// OR2T8 (11738714_s_at) / RFU VCAN (11748164_a_at) / Fold change /veh VCAN (11748164_a_at) / RFU JSRP1 (11732532_at) / Fold change /veh JSRP1 (11732532_at) / RFU KRTAP10-11 (11738290_x_at) / Fold change /veh KRTAP10-11 (11738290_x_at) / RFU MYO3A (11730013_a_at) / Fold change /veh MYO3A (11730013_a_at) / RFU EBF3 (11725865_a_at) / Fold change /veh EBF3 (11725865_a_at) / RFU CAMK2N1 (11719241_x_at) / Fold change /veh CAMK2N1 (11719241_x_at) / RFU C5orf56 (11738088_a_at) / Fold change /veh C5orf56 (11738088_a_at) / RFU OLFML3 (11715873_a_at) / Fold change /veh OLFML3 (11715873_a_at) / RFU LOC100653217 /// NTM (11731650_a_at) / Fold change /veh LOC100653217 /// NTM (11731650_a_at) / RFU MAPK11 (11762145_a_at) / Fold change /veh MAPK11 (11762145_a_at) / RFU FIZ1 (11724087_x_at) / Fold change /veh FIZ1 (11724087_x_at) / RFU OASL (11726364_x_at) / Fold change /veh OASL (11726364_x_at) / RFU SOX15 (11748057_x_at) / Fold change /veh SOX15 (11748057_x_at) / RFU CD79A (11719716_a_at) / Fold change /veh CD79A (11719716_a_at) / RFU HIST1H1D (11736915_at) / Fold change /veh HIST1H1D (11736915_at) / RFU CASKIN2 (11723855_a_at) / Fold change /veh CASKIN2 (11723855_a_at) / RFU LOC730098 (11760151_x_at) / Fold change /veh LOC730098 (11760151_x_at) / RFU OR4N2 (11742367_at) / Fold change /veh OR4N2 (11742367_at) / RFU PRRT2 (11749266_a_at) / Fold change /veh PRRT2 (11749266_a_at) / RFU SNX32 (11753110_a_at) / Fold change /veh SNX32 (11753110_a_at) / RFU CDHR5 (11726645_a_at) / Fold change /veh CDHR5 (11726645_a_at) / RFU RCAN1 (11760418_a_at) / Fold change /veh RCAN1 (11760418_a_at) / RFU FAM167A (11723789_a_at) / Fold change /veh FAM167A (11723789_a_at) / RFU FAM26E (11764081_at) / Fold change /veh FAM26E (11764081_at) / RFU ISYNA1 (11749810_s_at) / Fold change /veh ISYNA1 (11749810_s_at) / RFU ACY1 (11761880_at) / Fold change /veh ACY1 (11761880_at) / RFU 11764098_at / Fold change /veh 11764098_at / RFU SAMD14 (11745864_x_at) / Fold change /veh SAMD14 (11745864_x_at) / RFU NPB (11741838_a_at) / Fold change /veh NPB (11741838_a_at) / RFU TMPRSS6 (11731388_a_at) / Fold change /veh TMPRSS6 (11731388_a_at) / RFU KRTAP10-2 (11738614_at) / Fold change /veh KRTAP10-2 (11738614_at) / RFU ARHGAP8 /// PRR5-ARHGAP8 (11727945_x_at) / Fold change /veh ARHGAP8 /// PRR5-ARHGAP8 (11727945_x_at) / RFU KRTAP5-7 /// NADSYN1 (11734609_at) / Fold change /veh KRTAP5-7 /// NADSYN1 (11734609_at) / RFU RASL12 (11751679_a_at) / Fold change /veh RASL12 (11751679_a_at) / RFU CDKN2B (11736163_a_at) / Fold change /veh CDKN2B (11736163_a_at) / RFU PRF1 (11729649_at) / Fold change /veh PRF1 (11729649_at) / RFU, ZNF638 /// ZNF638-IT1 / Fold change vs veh, ZNF638 /// ZNF638-IT1 / RFU, PANK3 / Fold change vs veh, PANK3 / RFU, SH3YL1 / Fold change vs veh, SH3YL1 / RFU, ZEB2 / Fold change vs veh, ZEB2 / RFU, NRIP1 / Fold change vs veh, NRIP1 / RFU, PTTG1IP / Fold change vs veh, PTTG1IP / RFU, CAPN2 / Fold change vs veh, CAPN2 / RFU, MED14 / Fold change vs veh, MED14 / RFU, SNORA58 / Fold change vs veh, SNORA58 / RFU, C1orf63 / Fold change vs veh, C1orf63 / RFU, LRRFIP1 / Fold change vs veh, LRRFIP1 / RFU, NDUFAF7 / Fold change vs veh, NDUFAF7 / RFU, SLC12A2 / Fold change vs veh, SLC12A2 / RFU, IBTK / Fold change vs veh, IBTK / RFU, ESF1 / Fold change vs veh, ESF1 / Fold change vs veh, TMEM50B / RFU, TAOK1 / Fold change vs veh, TAOK1 / RFU, ACBD3 / Fold change vs veh, ACBD3 / RFU, TMA16 / Fold change vs veh, TMA16 / RFU, RWDD3 / Fold change vs veh, RWDD3 / RFU, BCAT1 / Fold change vs veh, BCAT1 / RFU, EDEM3 / Fold change vs veh, EDEM3 / RFU, TMEM33 / Fold change vs veh, TMEM33 / RFU, WDR75 / Fold change vs veh, WDR75 / RFU, AHCTF1 / Fold change vs veh, AHCTF1 / RFU, TFRC / Fold change vs veh, TFRC / RFU, ZDHHC17 / Fold change vs veh, ZDHHC17 / RFU, NOM1 / Fold change vs veh, NOM1 / RFU, ARL8B / Fold change vs veh, ARL8B / RFU, ZBTB11 / Fold change vs veh, ZBTB11 / RFU, TAMM41 / Fold change vs veh, TAMM41 / RFU, KIAA1704 /// LOC100996395 / Fold change vs veh, KIAA1704 /// LOC100996395 / RFU, ING1 / Fold change vs veh, ING1 / RFU, TRMT61B / Fold change vs veh, TRMT61B / RFU, FUBP3 / Fold change vs veh, FUBP3 / RFU, TP53 / Fold change vs veh, TP53 / RFU, TNKS2 / Fold change vs veh, TNKS2 / RFU, ZFP14 / Fold change vs veh, ZFP14 / RFU, ACTR2 / Fold change vs veh, ACTR2 / RFU, PPP3R1 / Fold change vs veh, PPP3R1 / RFU, PIK3R1 / Fold change vs veh, PIK3R1 / RFU, HNRNPA1 / Fold change vs veh, HNRNPA1 / RFU, RNF170 / Fold change vs veh, RNF170 / RFU, ZNF28 / Fold change vs veh, ZNF28 / RFU, RNGTT / Fold change vs veh, RNGTT / RFU, OGT / Fold change vs veh, OGT / RFU, BRD1 / Fold change vs veh, BRD1 / RFU, MARS / Fold change vs veh, MARS / RFU, ZNF655 / Fold change vs veh, ZNF655 / RFU, FAHD1 / Fold change vs veh, FAHD1 / RFU, BDP1 / Fold change vs veh, BDP1 / RFU, LRRCC1 / Fold change vs veh, LRRCC1 / RFU, ARID1A / Fold change vs veh, ARID1A / RFU, ZNF146 / Fold change vs veh, ZNF146 / RFU, ZNF330 / Fold change vs veh, ZNF330 / RFU, GPN3 / Fold change vs veh, GPN3 / RFU, C9orf123 / Fold change vs veh, C9orf123 / RFU, N4BP2L2 / Fold change vs veh, N4BP2L2 / RFU, ARFIP1 / Fold change vs veh, ARFIP1 / RFU, FAM179B / Fold change vs veh, FAM179B / RFU, BCL10 / Fold change vs veh, BCL10 / RFU, UHRF1BP1L / Fold change vs veh, UHRF1BP1L / RFU, BET1 / Fold change vs veh, BET1 / RFU, CNOT2 / Fold change vs veh, CNOT2 / RFU, ZNF268 / Fold change vs veh, ZNF268 / Fold change vs veh, ZNF507 / RFU, DGCR2 / Fold change vs veh, DGCR2 / RFU, WDSUB1 / Fold change vs veh, WDSUB1 / Fold change vs veh, HSP90B1 /// MIR3652 / RFU, ADSS / Fold change vs veh, ADSS / RFU, GK / Fold change vs veh, GK / RFU, ZNF148 / Fold change vs veh, ZNF148 / RFU, TAF9 / Fold change vs veh, TAF9 / RFU, SLC1A5 / Fold change vs veh, SLC1A5 / RFU, SLMO2 / Fold change vs veh, SLMO2 / RFU, ABCC4 / Fold change vs veh, ABCC4 / RFU, LOC101060439 /// RAP1B / Fold change vs veh, LOC101060439 /// RAP1B / RFU, RFX7 / Fold change vs veh, RFX7 / RFU, GTPBP10 / Fold change vs veh, GTPBP10 / RFU, CNEP1R1 / Fold change vs veh, CNEP1R1 / RFU, BIVM-ERCC5 /// ERCC5 / Fold change vs veh, BIVM-ERCC5 /// ERCC5 / RFU, ILF3 / Fold change vs veh, ILF3 / RFU 11762660_at / Fold change /veh 11762660_at / RFU VCAN (11757783_s_at) / Fold change /veh VCAN (11757783_s_at) / RFU DDX43 (11728927_at) / Fold change /veh DDX43 (11728927_at) / RFU KRT8 (11758188_x_at) / Fold change /veh KRT8 (11758188_x_at) / RFU NKD1 (11759106_at) / Fold change /veh NKD1 (11759106_at) / RFU SRD5A1 (11742802_a_at) / Fold change /veh SRD5A1 (11742802_a_at) / RFU TPSAB1 /// TPSB2 (11721975_s_at) / Fold change /veh TPSAB1 /// TPSB2 (11721975_s_at) / RFU GSTM3 (11746129_a_at) / Fold change /veh GSTM3 (11746129_a_at) / RFU IL23R (11737362_x_at) / Fold change /veh IL23R (11737362_x_at) / RFU TMEM51 (11727254_a_at) / Fold change /veh TMEM51 (11727254_a_at) / RFU PIWIL2 (11732686_x_at) / Fold change /veh PIWIL2 (11732686_x_at) / RFU ORM1 (11744905_x_at) / Fold change /veh ORM1 (11744905_x_at) / RFU CCDC152 (11743942_at) / Fold change /veh CCDC152 (11743942_at) / RFU ECM1 (11717891_a_at) / Fold change /veh ECM1 (11717891_a_at) / RFU IL23R (11748794_a_at) / Fold change /veh IL23R (11748794_a_at) / RFU TNFAIP8L3 (11732012_x_at) / Fold change /veh TNFAIP8L3 (11732012_x_at) / RFU MBOAT4 (11741988_at) / Fold change /veh MBOAT4 (11741988_at) / RFU 11764193_at / Fold change /veh 11764193_at / RFU TMEM53 (11763286_at) / Fold change /veh TMEM53 (11763286_at) / RFU MAGEB2 (11727129_at) / Fold change /veh MAGEB2 (11727129_at) / RFU TMEM200A (11744735_a_at) / Fold change /veh TMEM200A (11744735_a_at) / RFU CCDC152 (11751479_a_at) / Fold change /veh CCDC152 (11751479_a_at) / RFU FAM211A (11726209_a_at) / Fold change /veh FAM211A (11726209_a_at) / RFU RGS16 (11746705_a_at) / Fold change /veh RGS16 (11746705_a_at) / RFU VCAN (11755009_s_at) / Fold change /veh VCAN (11755009_s_at) / RFU RHOB (11743442_s_at) / Fold change /veh RHOB (11743442_s_at) / RFU RGS16 (11720943_a_at) / Fold change /veh RGS16 (11720943_a_at) / RFU RGS16 (11720944_at) / Fold change /veh RGS16 (11720944_at) / RFU, VPS4B / Fold change vs veh, VPS4B / RFU, CREB1 / Fold change vs veh, CREB1 / RFU, DNAJC13 / Fold change vs veh, DNAJC13 / RFU, GNAQ / Fold change vs veh, GNAQ / RFU, CDK5R1 / Fold change vs veh, CDK5R1 / RFU, ZRANB3 / Fold change vs veh, ZRANB3 / RFU, CUL4A / Fold change vs veh, CUL4A / RFU, CCNY / Fold change vs veh, CCNY / RFU, UFL1 / Fold change vs veh, UFL1 / RFU, COG3 / Fold change vs veh, COG3 / RFU, DIAPH2 / Fold change vs veh, DIAPH2 / RFU, SKA2 / Fold change vs veh, SKA2 / RFU, AFF3 / Fold change vs veh, AFF3 / RFU, LMF1 / Fold change vs veh, LMF1 / RFU, IPO11 / Fold change vs veh, IPO11 / RFU, DFFB / Fold change vs veh, DFFB / RFU, FOXP1 / Fold change vs veh, FOXP1 / RFU, CARD8 / Fold change vs veh, CARD8 / RFU, STRN3 / Fold change vs veh, STRN3 / RFU, ADK / Fold change vs veh, ADK / RFU, RASSF2 / Fold change vs veh, RASSF2 / RFU, WIPF1 / Fold change vs veh, WIPF1 / RFU, LARP1B / Fold change vs veh, LARP1B / RFU, RASA1 / Fold change vs veh, RASA1 / RFU, RB1 / Fold change vs veh, RB1 / RFU, PPFIA1 / Fold change vs veh, PPFIA1 / RFU, MAT2A / Fold change vs veh, MAT2A / RFU, CCT5 / Fold change vs veh, CCT5 / RFU, WDR92 / Fold change vs veh, WDR92 / RFU, CUX1 / Fold change vs veh, CUX1 / RFU, TTC7A / Fold change vs veh, TTC7A / RFU, TMEM135 / Fold change vs veh, TMEM135 / RFU, DEPTOR / Fold change vs veh, DEPTOR / RFU, CPM / Fold change vs veh, CPM / RFU, DNAJB6 / Fold change vs veh, DNAJB6 / RFU, CACNA2D3 / Fold change vs veh, CACNA2D3 / RFU, DTX4 / Fold change vs veh, DTX4 / RFU, TFCP2 / Fold change vs veh, TFCP2 / RFU, GMCL1 /// GMCL1P1 / Fold change vs veh, GMCL1 /// GMCL1P1 / RFU, AEBP2 / Fold change vs veh, AEBP2 / RFU, SNHG1 /// SNORD22 /// SNORD25 /// SNORD26 /// SNORD27 /// SNORD28 /// SNORD29 /// SNORD31 / Fold change vs veh, SNHG1 /// SNORD22 /// SNORD25 /// SNORD26 /// SNORD27 /// SNORD28 /// SNORD29 /// SNORD31 / Fold change (Aza/veh), C12orf56 (ProbeSet 11735607_a_at) / Fold change (ACY-1035/veh), C12orf56 (ProbeSet 11735607_a_at) / Fold change (Aza/veh), FGFR1OP (ProbeSet 11751329_s_at) / Fold change (ACY-1035/veh), FGFR1OP (ProbeSet 11751329_s_at) / Fold change (Aza/veh), VPS36 (ProbeSet 11739960_a_at) / Fold change (ACY-1035/veh), VPS36 (ProbeSet 11739960_a_at) / RFU SYPL1 (11715823_x_at) / Fold change /veh SYPL1 (11715823_x_at) / RFU IGFBP7 (11715501_s_at) / Fold change /veh IGFBP7 (11715501_s_at) / RFU REEP3 (11722064_at) / Fold change /veh REEP3 (11722064_at) / RFU IGLL1 (11728026_x_at) / Fold change /veh IGLL1 (11728026_x_at): dose or concentration left out as unconfirmed
Details: ProbeSet 11747889_x_at; LIST B

In the case of `Nc1ncn([C@@H]2O[C@H](CO)[C@@H](O)[C@H]2O)c(=O)n1` [azacitidine], the “RFU, SH3YL1” value is reported as 57.53 RFU.
